This is an account of results in patent US20140088052A1, “CHALCONE DERIVATIVES AS NRF2 ACTIVATORS” (THE JOHNS HOPKINS UNIVERSITY, priority 2011, published 2014).

One data set has as its system Beas-2B cells. Description: Cell viability / cytotoxicity (MTT assay) in Beas-2B cells. It counts as cell-based, human. Conditions: 24 h, DMSO = 100. The method, then:
Concurrent with the gene expression analysis, the cytotoxicity of the chalcone derivatives was determined using the MTT assay.
Mad. Chem. 2007, 15, 2952-2962. […] Four hours before the end of incubation, the medium was removed and 100 μL of MTT (5 mg/mL in serum free medium) was added to each well. The MTT was removed after 4 h, cells were washed with PBS, and 100 μL DMSO was added to each well to dissolve the water-insoluble MTT-formazan crystals. The absorbance was recorded at 570 nm in a plate reader (Molecular Devices, Sunnyvale, Calif.).

Another data set deals with Nrf2. Kind of data set: Expression of Nrf2-regulated genes GCLM and NQO1 by qRT-PCR in Beas-2B cells (screen). The class given is cell-based, human. As to conditions: 16 h; for fold induction at 10 µM: Homo sapiens. The method, then:
To investigate the potency of the presently disclosed chalcone derivatives to activate Nrf2, the expression of antioxidant genes, GCLM and NADPH-NQO1, two well characterized transcriptional targets of Nrf2, were measured as surrogate markers. By “marker” is meant any protein or polynucleotide having an alteration in expression level or activity that is associated with a disease, disorder, or condition. It has been previously shown that oxidants or small molecule activators of Nrf2 increase GCLM and NQO1 in cells or tissues of wild-type, but not in Nrf2-deficient mice. Osburn, W. O., et al., Genetic or pharmacologic amplification of Nrf2 signaling inhibits acute inflammatory liver injury in mice. Toxicol. Sci. 2008, 104(1), 218-227. […]
RNA was isolated and gene expression was measured after 16 h.
Total RNA was extracted from cells/tissue using Qiagen RNeasy kit (Qiagen Corporation, Valencia, Calif.) and reverse transcription was performed by using random hexamers and MultiScribe reverse transcriptase according to the manufacturer's recommendations (Applied Biosystems, Foster City, Calif., USA). Quantitative real-time RT-PCR analyses of Nrf2, NQO1, HO1, and GCLM were performed by using Assay-on-Demand primers and probe sets from Applied Biosystems. Assays were performed using the ABI 7000 Taqman system (Applied Biosystems, Foster City, Calif.). β-actin was used for normalization.
Background: In qPCR the cycle at which signal appears reflects the starting amount.

Setting [1] is: BEAS-2B, DMSO = 1.0 (Table 2), read-out: Relative Fold Change GCLM.
[2] abbreviates: BEAS-2B, DMSO = 1.0 (Table 2), read-out: Relative Fold Change NQO1.
Where [3] appears, read: BEAS-2B, DMSO = 1 (Table 3), read-out: Relative Fold Change GCLM.
The mark [4] stands for this setting: BEAS-2B, DMSO = 1 (Table 3), read-out: Relative Fold Change NQO1.

Molecules are shown by their SMILES. Where two headings read alike, the source gives them in different places.

In the case of `COc1cc(OC)cc(C(=O)/C=C/c2cccc(C(F)(F)F)c2)c1` [Compound 3i, (E)-1-(3,5-dimethoxyphenyl)-3-(3-(trifluoromethyl)phenyl)prop-2-en-1-one], the “% Cell Viability” value with Beas-2B cells came to 108.2%. The fold induction at 10 µM is 3.8 in the data set with Nrf2 (setting [1]), 3.9 with Nrf2 (setting [2]), 3.8 in the data set on Nrf2 (setting [3]) and 3.9 in the data set on Nrf2 (setting [4]).
`COc1ccc(C(=O)/C=C/c2ccccc2C(F)(F)F)cc1` [Compound 2d, (E)-1-(4-methoxyphenyl)-3-(2-(trifluoromethyl)phenyl)prop-2-en-1-one]: the “% Cell Viability” value in the data set on Beas-2B cells is listed as 96%. Also, the fold induction at 10 µM with Nrf2 (setting [1]) stood at 5.4; in the data set with Nrf2 (setting [2]) it was 4.6; in the data set on Nrf2 (setting [3]) it was 5.4; in the data set on Nrf2 (setting [4]), 4.6.
For the molecule `COc1ccc(C(=O)/C=C/c2ccccc2C(F)(F)F)c(OC)c1OC` [Compound 2k, (E)-1-(2,3,4-trimethoxyphenyl)-3-(2-(trifluoromethyl)phenyl)prop-2-en-1-one], in the data set on Beas-2B cells, the “% Cell Viability” value is recorded as 101.6%. Besides, the fold induction at 10 µM amounted to 5.4 in the data set with Nrf2 (setting [1]), 4.1 in the data set with Nrf2 (setting [2]), 5.4 in the data set on Nrf2 (setting [3]) and 4.1 with Nrf2 (setting [4]).
With `COc1cccc(C(=O)/C=C/c2cccc(C(F)(F)F)c2)c1` [Compound 3c, (E)-1-(3-methoxyphenyl)-3-(3-(trifluoromethyl)phenyl)prop-2-en-1-one], in the data set with Beas-2B cells, the “% Cell Viability” value was 95.3%. Moreover, the fold induction at 10 µM in the data set on Nrf2 (setting [1]) worked out at 4.6; with Nrf2 (setting [2]), 3.5; in the data set on Nrf2 (setting [3]), 4.6; in the data set on Nrf2 (setting [4]) it was 3.5.
As to `COc1cc(OC)cc(C(=O)/C=C/c2ccccc2C(F)(F)F)c1` [Compound 2i, (E)-1-(3,5-dimethoxyphenyl)-3-(2-(trifluoromethyl)phenyl)prop-2-en-1-one], in the data set on Beas-2B cells, the “% Cell Viability” value was 87.1%. The fold induction at 10 µM was determined as 4 in the data set on Nrf2 (setting [1]), 3.7 in the data set on Nrf2 (setting [2]), 4 with Nrf2 (setting [3]) and 3.7 in the data set with Nrf2 (setting [4]).
Turning to `COc1cccc(OC)c1C(=O)/C=C/c1ccccc1C(F)(F)F` [Compound 2f, (E)-1-(2,6-dimethoxyphenyl)-3-(2-(trifluoromethyl)phenyl)prop-2-en-1-one], the “% Cell Viability” value in the data set on Beas-2B cells is reported as 101.1%. In addition, the fold induction at 10 µM is 5.7 with Nrf2 (setting [1]), 5.3 in the data set with Nrf2 (setting [2]), 5.7 with Nrf2 (setting [3]) and 5.3 in the data set on Nrf2 (setting [4]).
As to `COc1cccc(C(=O)/C=C/c2ccccc2C(F)(F)F)c1` [Compound 2c, (E)-1-(3-methoxyphenyl)-3-(2-(trifluoromethyl)phenyl)prop-2-en-1-one], the “% Cell Viability” value in the data set on Beas-2B cells came out at 96.6%. In addition, the fold induction at 10 µM with Nrf2 (setting [1]) was found to be 5.6; in the data set on Nrf2 (setting [2]), 4.3; in the data set on Nrf2 (setting [3]), 5.6; in the data set with Nrf2 (setting [4]), 4.3.
As for `COc1cc(OC)c(C(=O)/C=C/c2ccccc2C(F)(F)F)c(OC)c1` [Compound 2l, (E)-1-(2,4,6-trimethoxyphenyl)-3-(2-(trifluoromethyl)phenyl)prop-2-en-1-one], the “% Cell Viability” value in the data set on Beas-2B cells is given as 145.3%. The fold induction at 10 µM in the data set on Nrf2 (setting [1]) was 4.4; with Nrf2 (setting [2]), 4.3; with Nrf2 (setting [3]), 4.4; in the data set with Nrf2 (setting [4]), 4.3.
With `COc1cc(C(=O)/C=C/c2ccccc2C(F)(F)F)cc(OC)c1OC` [Compound 2j, (E)-1-(3,4,5,S.trimethoxyphenyl)-3-(2-(trifluoromethyl)phenyl)prop-2-en-1-one], the fold induction at 10 µM was found to be 3 with Nrf2 (setting [1]) and 3.1 in the data set on Nrf2 (setting [2]).
With `COc1ccc(C(=O)/C=C/c2ccc(C(F)(F)F)cc2)c(OC)c1OC` [Compound 4j], the “% Cell Viability” value in the data set on Beas-2B cells amounted to 100.1%. The fold induction at 10 µM in the data set on Nrf2 (setting [1]) stood at 4.1; with Nrf2 (setting [2]), 3.9; in the data set on Nrf2 (setting [3]), 4.1; in the data set with Nrf2 (setting [4]), 3.7.
Turning to `COc1cc(OC)cc(C(=O)/C=C/c2ccccc2[N+](=O)[O-])c1` [Compound 5i], in the data set with Beas-2B cells, the “% Cell Viability” value was 90.9%. For the same molecule, the fold induction at 10 µM worked out at 3.4 with Nrf2 (setting [1]), 4.1 in the data set with Nrf2 (setting [2]), 3.4 in the data set with Nrf2 (setting [3]) and 4.1 in the data set with Nrf2 (setting [4]).
In the case of `COc1ccc(C(=O)/C=C/c2ccccc2)c(OC)c1` [Compound 1e, (E)-3-phenyl-1-(2,4-dimethoxyphenyl)prop-2-en-1-one], the fold induction at 10 µM came out at 2.7 in the data set on Nrf2 (DMSO = 1.0 (Table 2), read-out: Relative Fold Change GCLM) and 2.8 with Nrf2 (DMSO = 1.0 (Table 2), read-out: Relative Fold Change NQO1).
On to `COc1cc(OC)cc(C(=O)/C=C/c2ccccc2)c1` [Compound 1i, (E)-3-phenyl-1-(3,5-dimethoxyphenyl)prop-2-en-1-one], for which the values for the fold induction at 10 µM with Nrf2 (setting [1]) and with Nrf2 (setting [2]) were 3 and 2.4, respectively.
For `COc1ccc(C(=O)/C=C/c2ccccc2)c(OC)c1OC` [Compound 1k, (E)-3-phenyl-1-(2,3,4.trimethoxyphenyl)prop-2-en-1-one], in the data set on Nrf2 (10 μM, DMSO = 1.0 (Table 2)), the “Relative Fold Change GCLM” value was found to be 2.4 and the “Relative Fold Change NQO1” value was determined as 2.4.
Consider `COc1ccc(C(=O)/C=C/c2cccc(C(F)(F)F)c2)cc1OC` [Compound 3h, (E)-1-(3,4-dimethoxyphenyl)-3-(3-(trifluoromethyl)phenyl)prop-2-en-1-one], for which the fold induction at 10 µM came to 4.1 with Nrf2 (setting [1]) and 2.9 with Nrf2 (setting [2]).
As to `COc1ccc(C(=O)/C=C/c2ccccc2C(F)(F)F)cc1OC` [Compound 2h, (E)-1-(3,4-dimethoxyphenyl)-3-(2-(trifluoromethyl)phenyl)prop-2-en-1-one], the fold induction at 10 µM in the data set with Nrf2 (setting [1]) is 4.3; with Nrf2 (setting [2]), 2.7.
Turning to `COc1ccc(OC)c(C(=O)/C=C/c2cccc(C(F)(F)F)c2)c1` [Compound 3g, (E)-1-(2,5-dimethoxyphenyl)-3-(3-(trifluoromethyl)phenyl)prop-2-en-1-one], the figures for the fold induction at 10 µM in the data set on Nrf2 (setting [1]) and with Nrf2 (setting [2]) were 1.8 and 0.8, respectively.
Taken in the same sequence, the figures for `COc1ccccc1C(=O)/C=C/c1cccc(C(F)(F)F)c1` [Compound 3b, (E)-1-(2-methoxyphenyl)-3-(3-(trifluoromethyl)phenyl)prop-2-en-1-one] were 3.9 and 2.9.
Consider `COc1cc(C(=O)/C=C/c2ccc(C(F)(F)F)cc2)cc(OC)c1OC` [Compound 4i], for which the fold induction at 10 µM in the data set with Nrf2 (setting [1]) was 4.1; in the data set on Nrf2 (setting [2]), 3.7.
Taken in the same sequence, the figures for `COc1ccccc1C(=O)/C=C/c1ccccc1` [Compound 1b, (E)-1-(2-methoxyphenyl)-3-phenylprop-2-en-1-one] were 3.6 and 3.2.
Taken in the same sequence, the figures for `COc1ccc(OC)c(C(=O)/C=C/c2ccccc2)c1` [Compound 1g, (E)-3-phenyl-1-(2,5-dimethoxyphenyl)prop-2-en-1-one] were 3 and 2.6.
Consider `COc1cccc(OC)c1C(=O)/C=C/c1cccc(C(F)(F)F)c1` [Compound 3f, (E)-1-(2,6-dimethoxyphenyl)-3-(3-(trifluoromethyl)phenyl)prop-2-en-1-one], for which the figures for the fold induction at 10 µM in the data set with Nrf2 (setting [1]) and in the data set on Nrf2 (setting [2]) were 1.8 and 0.6, respectively.
Regarding `COc1ccc(OC)c(C(=O)/C=C/c2ccccc2[N+](=O)[O-])c1` [Compound 5g], the results for the fold induction at 10 µM in the data set with Nrf2 (setting [1]) and with Nrf2 (setting [2]) were 1.7 and 0.7, respectively.
Regarding `COc1ccc(C(=O)/C=C/c2ccccc2[N+](=O)[O-])c(OC)c1OC` [Compound 5k, (E)-1-(2,3,4-trimethoxyphenyl)-3-(2-nitrophenyl)prop-2-en-1-one], the fold induction at 10 µM was determined as 2.9 in the data set on Nrf2 (setting [1]) and 3.3 in the data set on Nrf2 (setting [2]).
The matching figures for `COc1cccc(C(=O)/C=C/c2ccc(C(F)(F)F)cc2)c1` [Compound 4c, (E)-1-(3-methoxyphenyl)-4-(4-(trifluoromethyl)phenyl)prop-2-en-1-one]: 2.9 and 3.1.
Taken in the same sequence, the figures for `COc1cccc(OC)c1C(=O)/C=C/c1ccccc1` [Compound 1f, (E)-3-phenyl-1-(2,6-dimethoxyphenyl)prop-2-en-1-one] were 2.5 and 1.9.
